Measurements as given in the supplement of paper PMC10331698.
± gives the standard deviation of the averaged measurements.

How the values were obtained:
Experiment in all cases: level (log10 ratio to DMSO vehicle control); higher = higher biomarker level / cell amount than vehicle control
Conditions in all cases: in DMSO
[1] = compound: OCC(F)(F)OC(F)(F)C(F)(F)OC(F)(F)CO [1H,1H,8H,8H-Perfluoro-3,6-dioxaoctane-1,8-diol]
Protocol: (§1)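 BioMAP Diversity Plus panel of 12 human primary cell co-culture systems (3C, 4H, LPS, SAg, BT, BF4T, BE3C, CASM3C, HDF3CGF, KF3CT, MyoF, Mphg). Compounds were added 1 h before stimulation and left for 24 h (MyoF 48 h; BT 72 h for soluble read-outs or 6 d for IgG). Biomarkers were read by ELISA, cytotoxicity by SRB, PBMC viability and proliferation by Alamar Blue. Each well value was divided by the mean of 8 DMSO control wells on the same plate and log10 transformed; duplicate blinded samples were tested at 4 concentrations.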

Perfluorobutanoic acid = compound: O=C(O)C(F)(F)C(F)(F)C(F)(F)F [Perfluorobutanoic acid]
Protocol: as §1

Perfluoroheptanoic acid = compound: O=C(O)C(F)(F)C(F)(F)C(F)(F)C(F)(F)C(F)(F)C(F)(F)F [Perfluoroheptanoic acid]
Protocol: as §1

[2] = compound: C=CC(F)(F)C(F)(F)C(F)(F)C(F)(F)C(F)(F)C(F)(F)C(F)(F)C(F)(F)C=C [1,8-Divinylperfluorooctane]
Protocol: as §1

[3] = compound: CCN(CCO)S(=O)(=O)C(F)(F)C(F)(F)C(F)(F)C(F)(F)C(F)(F)C(F)(F)C(F)(F)C(F)(F)F [N-Ethyl-N-(2-hydroxyethyl)perfluorooctanesulfonamide]
Protocol: as §1

[4] = compound: O=C(O)C(F)(F)C(F)(F)C(F)F [4H-Perfluorobutanoic acid]
Protocol: as §1

[5] = compound: C=C(C)C(=O)OCCC(F)(F)C(F)(F)C(F)(F)C(F)(F)C(F)(C(F)(F)F)C(F)(F)F [(Perfluoro-5-methylhexyl)ethyl 2-methylprop-2-enoate]
Protocol: as §1

Test System | level (log10) ([1]; 6700 nM) | level (log10) ([1]; 20000 nM) | level (log10) ([1]; 60000 nM) | level (log10) (Perfluorobutanoic acid; 6700 nM) | level (log10) (Perfluorobutanoic acid; 20000 nM) | level (log10) (Perfluorobutanoic acid; 60000 nM) | level (log10) (Perfluoroheptanoic acid; 6700 nM) | level (log10) (Perfluoroheptanoic acid; 20000 nM) | level (log10) (Perfluoroheptanoic acid; 60000 nM) | level (log10) ([2]; 6700 nM) | level (log10) ([2]; 20000 nM) | level (log10) ([3]; 6700 nM) | level (log10) ([3]; 20000 nM) | level (log10) ([4]; 6700 nM) | level (log10) ([4]; 20000 nM) | level (log10) ([4]; 60000 nM) | level (log10) ([5]; 6700 nM) | level (log10) ([5]; 20000 nM)
BE3C:CXCL9/MIG | 0.0015 ± 0.0064 | -0.0025 ± 0.0035 | 0.0035 ± 0.005 | 0.002 ± 0.0071 | -0.004 ± 0.013 | -0.0005 ± 0.00071 | 0 ± 0.0014 | 0.0065 ± 0.011 | 0.012 ± 0.017 | -0.001 ± 0.0014 | -0.005 ± 0.0028 | -0.006 ± 0.0028 | -0.0285 ± 0.0035 | -0.0015 ± 0.011 | 0.0085 ± 0.022 | 0.0135 ± 0.0092 | 0.009 ± 0.013 | 0.008 ± 0.0071
BE3C:CXCL10/IP-10 | 0.004 ± 0.02 | 0.01 ± 0.0071 | 0.0105 ± 0.016 | 0.0065 ± 0.00071 | -0.001 ± 0.011 | 0.0085 ± 0.0078 | 0.0055 ± 0.022 | 0.0065 ± 0.0092 | 0.0045 ± 0.011 | 0.0075 ± 0.0021 | 0 ± 0.017 | -0.051 ± 0.0028 | -0.141 ± 0.028 | -0.006 ± 0.021 | -0.001 ± 0.0099 | 0.017 ± 0.021 | 0.032 ± 0.031 | 0.022 ± 0.021
BE3C:CXCL11/I-TAC | 0.007 ± 0.0014 | 0.0185 ± 0.0021 | 0.009 ± 0.014 | 0.007 ± 0.0099 | -0.003 ± 0.0014 | -0.0085 ± 0.015 | 0.0065 ± 0.015 | -0.011 ± 0.0042 | -0.003 ± 0.0042 | 0.011 ± 0.02 | -0.002 ± 0.0014 | -0.006 ± 0.023 | -0.0035 ± 0.029 | -0.0015 ± 0.0064 | 0.008 ± 0.014 | 0.031 ± 0.011 | 0.005 ± 0.0099 | 0.0105 ± 0.0092
BE3C:EGFR | 0.0085 ± 0.012 | -0.0025 ± 0.021 | -0.0095 ± 0.0064 | 0.002 ± 0.0042 | 0.005 ± 0.0099 | -0.0035 ± 0.0035 | -0.0065 ± 0.0078 | 0.0045 ± 0.0021 | -0.0005 ± 0.033 | -0.0015 ± 0.022 | -0.006 | -0.02 ± 0.0014 | -0.072 ± 0.0057 | -0.0135 ± 0.011 | -0.0085 ± 0.0064 | 0.032 ± 0.025 | -0.0065 ± 0.011 | 0.009 ± 0.014
BE3C:HLA-DR | -0.0065 ± 0.025 | -0.009 ± 0.021 | -0.008 ± 0.0042 | -0.0085 ± 0.018 | 0.007 ± 0.0014 | -0.027 ± 0.013 | -0.009 ± 0.0014 | -0.004 ± 0.0014 | 0.002 ± 0.027 | 0.021 ± 0.016 | 0.014 | -0.0445 ± 0.013 | -0.115 ± 0.031 | -0.023 | -0.022 ± 0.0085 | -0.0005 ± 0.028 | -0.0115 ± 0.0078 | -0.0045 ± 0.0078
BE3C:IL-1alpha | 0.0105 ± 0.032 | 0.0055 ± 0.016 | 0.003 ± 0.0014 | 0.007 ± 0.018 | 0.0155 ± 0.021 | 0.0225 ± 0.049 | -0.0185 ± 0.029 | -0.0065 ± 0.03 | 0.0115 ± 0.0064 | 0.001 ± 0.02 | 0.026 ± 0.0057 | 0.0165 ± 0.005 | -0.0485 ± 0.059 | -0.0325 ± 0.0064 | -0.018 ± 0.025 | -0.0045 ± 0.079 | -0.017 ± 0.0057 | -0.009 ± 0.0014
BF4T:CCL2/MCP-1 | 0.015 ± 0.028 | 0.012 ± 0.027 | 0.0085 ± 0.00071 | 0.004 ± 0.038 | 0.017 ± 0.0057 | 0.006 ± 0.0071 | 0.0155 ± 0.056 | 0.019 ± 0.067 | 0.0365 ± 0.12 | -0.007 ± 0.0028 | 0.014 ± 0.047 | -0.004 ± 0.013 | -0.022 ± 0.0028 | -0.012 ± 0.0085 | 0.004 ± 0.011 | 0.0475 ± 0.069 | 0.012 ± 0.011 | 0.0275 ± 0.005
BF4T:CCL26/Eotaxin-3 | 0.0155 ± 0.0092 | 0.005 ± 0.035 | 0.024 ± 0.044 | -0.0225 ± 0.042 | 0.0075 ± 0.0021 | 0.008 ± 0.028 | 0.0145 ± 0.019 | -0.0055 ± 0.013 | -0.031 ± 0.081 | -0.0405 ± 0.019 | -0.0355 ± 0.013 | 0.0905 ± 0.029 | 0.141 ± 0.0028 | -0.035 ± 0.011 | 0.0085 ± 0.0035 | -0.0115 ± 0.063 | -0.0125 ± 0.0064 | 0.016 ± 0.044
